# Structures can show the parent of a compound that is named as a salt.
# System: ITK mediated IL-2 release in Jurkat cells
# Assay: ITK IL-2 release assay in CD3/CD28-stimulated Jurkat cells
# Type: cell-based
# Settings: Homo sapiens, CD3/CD28 Dynabeads stimulation, overnight, read-out: IL-2 Production Inhibition IC50
# Method: This assay was based on the ability of a compound to inhibit ITK mediated IL-2 release. Jurkat cells were placed in wells of a 96-well plate at 500,000 per well in 120 μL medium (same as above). Compounds were added as 15 μL per well of 10× working stock solutions in medium with 1% DMSO (or medium with 1% DMSO for Controls) and placed in a 37° C. incubator for 2 hours. Stimulation used CD3/CD28 Dynabeads to activate the T cell receptor and mimic antigen-presenting cells. Beads were added at a ratio of 1 bead per cell, in 15 μL medium (or medium alone for unstimulated Control). After overnight incubation, the plates were centrifuged at 290×g for 5 min, then 100 μL per well of supernatant medium removed for IL-2 cytokine assay. To determine cell viability, to the remaining well Contents 50 μL of CellTiter-Glo reagent was added and luminescence determined. The IL-2 cytokine assay utilized an electochemiluminescence-based ELISA.
row,IC50,SMILES
1,≤ 1 µM,"C=CC(=O)N1CC(Nc2cc(-c3ccnc(NC)c3)c[nH]c2=O)C1 [Example 9, 5-((1-acryloylazetidin-3-yl)amino)-2′-(methylamino)-[3,4′-bipyridin]-6(1H)-one]"
2,≤ 1 µM,"C=CC(=O)N1CC(Nc2cc(-c3ccnc(NC)n3)c[nH]c2=O)C1 [Example 10, 3-((1-acryloylazetidin-3-yl)amino)-5-(2-(methylamino)pyrimidin-4-yl)pyridin-2(1H)-one]"
3,≤ 1 µM,"C=CC(=O)N1CC(Nc2cc(-c3cncc(NC)n3)c[nH]c2=O)C1 [Example 11, 3-((1-acryloylazetidin-3-yl)amino)-5-(6-(methylamino)pyrazin-2-yl) pyridin-2(1H)-one]"

# Target: T1, ITK (Homo sapiens, UniProt Q08881)
# T1 sequence (Q08881 1-620): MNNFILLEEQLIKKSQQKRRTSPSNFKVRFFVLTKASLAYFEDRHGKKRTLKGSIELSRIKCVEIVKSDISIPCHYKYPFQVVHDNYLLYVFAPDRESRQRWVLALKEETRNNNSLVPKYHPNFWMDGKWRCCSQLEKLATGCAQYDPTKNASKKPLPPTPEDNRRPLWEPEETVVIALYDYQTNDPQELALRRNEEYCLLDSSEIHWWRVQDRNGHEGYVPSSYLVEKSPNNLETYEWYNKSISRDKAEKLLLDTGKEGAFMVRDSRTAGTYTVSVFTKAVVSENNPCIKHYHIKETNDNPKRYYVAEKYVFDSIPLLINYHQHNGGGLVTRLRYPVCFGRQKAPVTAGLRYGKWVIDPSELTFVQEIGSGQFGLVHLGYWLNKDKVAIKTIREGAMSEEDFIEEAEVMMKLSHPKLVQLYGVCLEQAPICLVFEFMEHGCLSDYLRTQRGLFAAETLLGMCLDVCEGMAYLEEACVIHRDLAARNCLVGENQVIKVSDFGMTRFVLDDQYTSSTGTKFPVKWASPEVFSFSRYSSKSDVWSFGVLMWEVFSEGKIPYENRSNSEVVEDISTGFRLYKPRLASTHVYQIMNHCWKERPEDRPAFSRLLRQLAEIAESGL
# Assay: ITK inhibitor binding potency (LanthaScreen TR-FRET competitive binding assay)
# Settings: pre-incubation condition not stated; read-out: ITK Inhibition IC50
# From the text: The ability of candidate compounds to interact with ITK is quantitated by a competitive binding assay using the LanthaScreen technology developed by Life Technologies. This assay is based on the binding of a proprietary, Alexa Fluor® 647-labeled, ATP-competitive kinase inhibitor (kinase tracer-236) to the ITK expression construct in the presence of a Europium-conjugated antibody, resulting in a FRET (fluorescence resonance energy transfer) signal. Displacement of the kinase tracer by compound results in a lower emission ratio upon excitation of the Europium chelate. Candidate compounds are designed as potential irreversible inhibitors of ITK, capable of ligating to an active site cysteine residue resulting in time dependent covalent binding. The time dependent nature of irreversible inhibition is investigated by performing the binding assay with and without a pre-incubation of compound and ITK. […] The inhibitory potency of candidate compounds is measured in 20 mM HEPES pH 7.5, 10 mM MgCl2, 0.01% BSA, 0.0005% Tween-20, and 2% DMSO in the presence of 10 nM ITK, 2 nM Eu-anti-GST antibody, and 50 nM kinase tracer-236 using a 384-well plate format. Background signal is defined in the absence of ITK and uninhibited signal is defined in the presence of vehicle (2% DMSO) alone. Compounds were evaluated in an 11-point dose-response ranging from 20 uM to 0.34 nM. The binding assays are performed under two preincubation Conditions to evaluate time dependence of inhibition. For the pre-incubation assay, ITK and Eu-anti-GST antibody are pre-incubated with compound or vehicle for two hours prior to the addition of kinase tracer. The non-preincubated assay is run under Conditions where ITK and Eu-anti-GST antibody are added to a mixture of compound and kinase tracer. IC50 values of compounds are determined using a 4 parameter logistical fit of emission ratio as a function of the concentration of compound.
row,IC50,SMILES
1,≤ 1 µM,"O=C(CCl)N1CCC[C@@H](Nc2cc(-c3ccncc3)c[nH]c2=O)C1 [Example 1, (R)-5-((1-(2-Chloroacetyl)piperidin-3-yl)amino)-[3,4′-bipyridin]-6(1H)-one]"
2,> 1 µM,"C=CC(=O)N1CCC[C@@H](Nc2cc(-c3ccncc3)c[nH]c2=O)C1 [Example 2, (R)-5-((1-Acryloylpiperidin-3-yl)amino)-[3,4′-bipyridin]-6(1H)-one]"
3,> 1 µM,"C=CC(=O)N1CC[C@@H](Nc2cc(-c3ccncc3)c[nH]c2=O)C1 [Example 3, (R)-5-((1-Acryloylpyrrolidin-3-yl)amino)-[3,4′-bipyridin]-6(1H)-one]"
4,≤ 1 µM,"O=C(CCl)N1CC(Nc2cc(-c3ccncc3)c[nH]c2=O)C1 [Example 4, 5-((1-(2-Chloroacetyl)azetidin-3-yl)amino)-[3,4′-bipyridin]-6(1H)-one]"
5,≤ 1 µM,"C=CC(=O)N1CC(Nc2cc(-c3ccncc3)c[nH]c2=O)C1 [Example 5, 5-((1-Acryloylazetidin-3-yl)amino)-[3,4′-bipyridin]-6(1H)-one]"
6,> 1 µM,"C/C=C/C(=O)N1CC(Nc2cc(-c3ccncc3)c[nH]c2=O)C1 [Example 6, (E)-5-((1-(But-2-enoyl)azetidin-3-yl)amino)-[3,4′-bipyridin]-6(1H)-one]"
7,≤ 1 µM,"C=CC(=O)N1CC(Nc2cc(-c3ccnc(C)c3)c[nH]c2=O)C1 [Example 7, 5-((1-acryloylazetidin-3-yl)amino)-2′-methyl-[3,4′-bipyridin]-6(1H)-one]"
8,≤ 1 µM,"C=CC(=O)N1CC(Nc2cc(-c3cncc(OC)n3)c[nH]c2=O)C1 [Example 8, 3-((1-acryloylazetidin-3-yl)amino)-5-(6-methoxypyrazin-2-yl) pyridin-2(1H)-one]"
9,≤ 1 µM,"C=CC(=O)N1CC(Nc2cc(-c3ccnc(NC)c3)c[nH]c2=O)C1 [Example 9, 5-((1-acryloylazetidin-3-yl)amino)-2′-(methylamino)-[3,4′-bipyridin]-6(1H)-one]"
10,≤ 1 µM,"C=CC(=O)N1CC(Nc2cc(-c3ccnc(NC)n3)c[nH]c2=O)C1 [Example 10, 3-((1-acryloylazetidin-3-yl)amino)-5-(2-(methylamino)pyrimidin-4-yl)pyridin-2(1H)-one]"
11,≤ 1 µM,"C=CC(=O)N1CC(Nc2cc(-c3cncc(NC)n3)c[nH]c2=O)C1 [Example 11, 3-((1-acryloylazetidin-3-yl)amino)-5-(6-(methylamino)pyrazin-2-yl) pyridin-2(1H)-one]"
12,> 1 µM,"CNC(=O)/C=C/C(=O)N1CC(Nc2cc(-c3ccncc3)c[nH]c2=O)C1 [Example 12, (E)-N-methyl-4-oxo-4-(3-((6-oxo-1,6-dihydro-[3,4′-bipyridin]-5-yl)amino)azetidin-l-yl)but-2-enamide]"
13,≤ 1 µM,"CNC/C=C/C(=O)N1CC(Nc2cc(-c3ccncc3)c[nH]c2=O)C1 [Example 13, (E)-5-((1-(4-(methylamino)but-2-enoyl)azetidin-3-yl)amino)-[3,4′-bipyridin]-6(1H)-one]"
14,> 1 µM,"CNc1cc(-c2c[nH]c(=O)c(NC3CN(C(=O)/C=C/c4ccccc4)C3)c2)ccn1 [Example 14, (E)-5-((1-Cinnamoylazetidin-3-yl)amino)-2′-(methylamino)-[3,4′-bipyridin]-6(1H)-one]"
15,> 1 µM,"CNc1cc(-c2c[nH]c(=O)c(NC3CN(C(=O)/C=C/Cc4ccccc4)C3)c2)ccn1 [Example 15, (E)-2′-(Methylamino)-5-((1-(4-phenylbut-2-enoyl)azetidin-3-yl)amino)-[3,4′-bipyridin]-6(1H)-one]"
16,≤ 1 µM,"C=CC(=O)N1CC(Nc2cc(-c3ccnc(C(=O)Nc4ccc(C(C)C)c(C)c4)c3)c[nH]c2=O)C1 [Example 16, 5-((1-Acryloylazetidin-3-yl)amino)-N-(4-isopropyl-3-methylphenyl)-6-oxo-1,6-dihydro-[3,4′-bipyridine]-2′-carboxamide hydrochloride]"
17,> 1 µM,"Cc1cc(NC(=O)c2cc(-c3c[nH]c(=O)c(NC4CN(C(=O)CCl)C4)c3)ccn2)ccc1C(C)C [Example 17, 5-((1-(2-Chloroacetyl)azetidin-3-yl)amino)-N-(4-isopropyl-3-methylphenyl)-6-oxo-1,6-dihydro-[3,4′-bipyridine]-2′-carboxamide formate]"
18,≤ 1 µM,"CC/C=C/C(=O)N1CC(Nc2cc(-c3ccnc(NC)c3)c[nH]c2=O)C1 [Example 18, (E)-2′-(Methylamino)-5-((1-(pent-2-enoyl)azetidin-3-yl)amino)-[3,4′-bipyridin]-6(1H)-one]"
19,≤ 1 µM,"CNc1cc(-c2c[nH]c(=O)c(NC3CN(C(=O)/C=C/CN(C)C)C3)c2)ccn1 [Example 19, (E)-5-((1-(4-(Dimethylamino)but-2-enoyl)azetidin-3-yl)amino)-2′-(methylamino)-[3,4′-bipyridin]-6(1H)-one]"
20,≤ 1 µM,"CNc1cc(-c2c[nH]c(=O)c(NC3CN(C(=O)/C=C/CCOc4ccccc4)C3)c2)ccn1 [Example 20, (E)-2′-(Methylamino)-5-((1-(5-phenoxypent-2-enoyl)azetidin-3-yl)amino)-[3,4′-bipyridin]-6(1H)-one]"

# — patent publication US9145393B2, “Arylpyridinone ITK inhibitors for treating inflammation and cancer” (Confluence Life Sciences, Inc., priority 2014, dated 2015)
